Results published in patent publication US5726302A, “Water soluble adenosine kinase inhibitors” (Gensia Inc., priority 1995, dated 1998).
Where two headings read alike, the source gives them in different places. One block for each compound: values may come before it.

Tests used:
[1] = system: isolated guinea pig hearts; conditions: in the absence of ADA inhibition; cited from earlier work
adenosine kinase = conditions: read-out: Ki, inhibition of adenosine kinase; cited from earlier work
Rats = experiment: Anti-inflammatory activity, carrageenan paw; assay type: in vivo, rat; conditions: 10 mg/kg, swelling after 3 hours
Method: Carrageenan (Type λ) was suspended in sterile PBS at 1% (w/v), autoclaved for 30 minutes, and stored at room temperature. Rats were pretreated with vehicle or AK inhibitor (10 mg/kg) by oral gavage or i.p. administration and the volume of the left hind paw was measured using a water displacement plethysmometer (Stoelting Co., Wood Dale, Ill.). One hour after oral treatment or 30 minutes after i.p. treatment, the rats were briefly anesthetized, and 0.1 ml of the carrageenan solution was injected subcutaneously into the planar surface of the left hind paw. The ensuing paw swelling was measured by plethysmometry after 3 hours. The paw volume in millileters was subtracted from the pre-injection paw volume. Data are presented as the percent inhibition of paw swelling in AK inhibitor treated animals, compared to vehicle treated control animals.

[2] = target: partially purified pig heart adenosine kinase (Sus scrofa, UniProt A0A5G2R0F5); experiment: biochemical
Sequence of partially purified pig heart adenosine kinase (A0A5G2R0F5 1-362): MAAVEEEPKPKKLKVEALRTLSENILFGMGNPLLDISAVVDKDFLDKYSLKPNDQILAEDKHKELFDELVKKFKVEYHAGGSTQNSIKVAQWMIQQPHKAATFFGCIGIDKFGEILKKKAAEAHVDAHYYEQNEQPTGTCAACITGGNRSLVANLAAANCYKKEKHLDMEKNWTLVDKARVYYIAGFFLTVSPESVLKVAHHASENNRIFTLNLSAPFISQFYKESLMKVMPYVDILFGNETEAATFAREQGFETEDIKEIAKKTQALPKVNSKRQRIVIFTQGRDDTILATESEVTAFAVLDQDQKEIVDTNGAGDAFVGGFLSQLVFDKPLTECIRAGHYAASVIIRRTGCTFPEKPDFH
Method: Adenosine kinase activity was measured essentially as described by Yamada et al Biochim. Biophys. Acta 660, 36-43 (1988) with a few minor modifications. Assay mixtures contained 50 mM TRIS-maleate buffer, pH 7.0, 0.1% BSA, 1 mM ATP 1 mM MgCl2, 0.5 μM [U-^14 C] adenosine (400-600 mCi/mmol) and varying duplicate concentrations of inhibitor. The reactions were initiated by addition of approximately 0.1 μU partially purified pig heart adenosine kinase, where one unit is defined as that amount of enzyme required to phosphorylate 1 μmol adenosine per minute. The reactions were incubated for 20 minutes at 37° C. The assay was quenched upon spotting 30 μL aliquots onto 2 cm^2 pieces of Whatman DE81 anion exchange paper. The paper squares were washed for 3 minutes in 6 L distilled/deionized water to remove the unreacted adenosine. […] The amount of ^14 C-AMP was quantified by scintillation counting.

mice [3] = experiment: HPLC analysis of plasma for metabolism in mice after oral administration; assay type: in vivo; conditions: 10 mg/kg
rat cardiomyocytes = conditions: inhibition of adenosine deaminase alone; cited from earlier work
anesthetized rats = conditions: cited from earlier work
dog hearts = conditions: in vivo; cited from earlier work
mice [4] = conditions: cited from earlier work
isolated rat hearts = conditions: alone, cited from earlier work
ischemic cerebral injury = conditions: Phillis et al.; cited from earlier work
Water solubility = assay type: physicochemical; conditions: deionized water (DI)
Method: The sample was sonicated for a period of up to 20 minutes. If a solution was not obtained, further solvent was added and the process was repeated until a clear solution was obtained, and the results were recorded. Solutions used were 50 mM potassium biphthalate (pH 4); 100 mM glycine (pH 9); 25 mM sodium carbonate and 25 mM sodium bicarbonate (pH 10); or deionized water (DI).

male SA rats [5] = experiment: Anticonvulsant activity, maximal electroshock (MES) model; assay type: in vivo; conditions: Rattus norvegicus, 1 h; po; one hour after dosing, fasted
Method: The anticonvulsant activity of the tested compounds was evaluated in male SA rats (100-150 g, Simonsen) using the maximal electroshock (MES) model described in Swinyard et al., Antiepileptic Drugs, 3d Ed. at 85-102 (Levy, et al., eds.), N.Y.: Raven Press (1989). The rats were maintained on a 12/12 light/dark cycle in temperature controlled facilities with free access to food and water. For p.o. administration, the animals are fasted overnight, prior to the experiment. One hour prior to seizure testing, the animals were injected interperitoneally (ip) or orally (per os, […]) with one of various doses of test compound dissolved in DMSO or PEG 400.
This endpoint was expressed as the percentage of animals in which the response was inhibited.

male SA rats [6] = experiment: Analgesic activity, tail flick; assay type: in vivo; conditions: Rattus norvegicus, ip
male SA rats [7] = experiment: Analgesic activity, hot plate; assay type: in vivo; conditions: Rattus norvegicus, ip
[8] = ip, 30 minutes before carrageenan
[9] = po, one hour before carrageenan

Compound: NC[C@H]1O[C@@H](n2cnc3c(N)ncnc32)[C@H](O)[C@@H]1O [5'-amino-5'-deoxyadenosine]
increase of adenosine release [1]: not apparent in the absence of ADA inhibition
Ki (adenosine kinase): < 0.1 µM

Compound: OC[C@H]1O[C@@H](n2cnc3c(NCCCCCCCCCCCCNc4ncnc5c4ncn5[C@@H]4O[C@H](CO)[C@@H](O)[C@H]4O)ncnc32)[C@H](O)[C@@H]1O [1,12-bis(adenosin-N^6-yl)dodecane]
Ki (adenosine kinase): < 0.1 µM

AK inhibition in vitro ([2]; in vitro): weak AK inhibitor in vitro
IC50 ([2]; pig heart adenosine kinase, 0.5 μM adenosine, pH 7.0, 20 minutes at 37° C, read-out: AK Inhibition (IC50)): 10 µM
metabolism in mice shown by HPLC analysis of plasma (mice [3]): generate a potent AK inhibitor
Compound: C[C@H]1O[C@@H](n2cc(I)c3c(NCCc4ccccn4)ncnc32)[C@H](O)[C@@H]1O [Compound 43, 4-N-(2-(2-pyridylethyl)amino)-5-iodo-7-(5-deoxy-1-β-D-ribofuranosyl)pyrrolo[2,3-d]pyrimidine]
Carrageenan Paw (% inhibition) of paw swelling (Rats; [8]): 58.6%
Carrageenan Paw (% inhibition) of paw swelling (Rats; [9]): 69.7%

Compound: OC[C@H]1O[C@@H](n2cnc3c2N=CNC[C@H]3O)C[C@@H]1O [2'-deoxycoformycin]
effect on adenosine release from the cells (rat cardiomyocytes): no effect on adenosine release

Compound: Nc1ncnc2c1c(I)cn2[C@@H]1O[C@H](CO)[C@@H](O)[C@H]1O [5-iodotubercidin]
blood pressure (anesthetized rats): decrease blood pressure
heart rate (anesthetized rats): decrease blood pressure and heart rate
effects in dog hearts subjected to ischemia and reperfusion (dog hearts): inconsistent effects
general flaccidity (skeletal muscle relaxation) (mice [4]): pronounced general flaccidity
hypothermia (mice [4]): hypothermia
spontaneous locomotor activity (mice [4]): much-reduced spontaneous locomotor activity
increase in perfusate adenosine concentration (isolated rat hearts; hypoxic, anoxic or ischemic conditions): no increase in perfusate adenosine concentration
increase in perfusate adenosine concentration (isolated rat hearts; normoxic conditions): no increase in perfusate adenosine concentration
protection against ischemic cerebral injury (ischemic cerebral injury): apparently does not protect against ischemic cerebral injury

solubility (Water solubility): > 5000 µg/mL
Compound: C[C@H]1O[C@@H](n2cc(-c3ccccc3)c3c(Nc4ccc(CN(C)C)cc4)ncnc32)[C@H](O)[C@@H]1O [Compound 1, 4-N(N,N-Dimethylaminomethylphenyl)amino-5-phenyl-7-(5-deoxy-β-D-ribofuranosyl)pyrrolo[2,,3-d]pyrimidine]
ED50 (male SA rats [5]): > 20 mg/kg
Carrageenan Paw (% inhibition) of paw swelling (Rats; [8]): 26.0%
Carrageenan Paw (% inhibition) of paw swelling (Rats; [9]): 19.2%
ED50 (male SA rats [6]): 15 mg/kg
ED50 (male SA rats [7]): 15.2 mg/kg
